Source: US5869234A, “Method of identifying compounds which modulate herpesvirus infection” (President and Fellows of Harvard College, priority 1996, dated 1999)
Ends that are not written are not given here.

Key:
[1] = system: CC(C)C[C@H](NC(=O)[C@H](CO)NC(=O)[C@H](C)NC(=O)[C@H](CCCNC(=N)N)NC(=O)[C@H](CCCNC(=N)N)NC(=O)[C@@H](N)CC(C)C)C(=O)NCC(=O)O; assay: In vitro phosphorylation of a synthetic peptide by PKA; format: biochemical, bovine; conditions: other: Lineweaver-Burk, PKA catalytic subunits, 4 min at 30° C., 60 μM ATP, pH 7.0
Procedure: (§1) ii) In vitro phosphorylation of a synthetic peptide. A peptide containing a potential protein kinase A site in the serine-rich region of ICP4 (RRRRHGRWRPSASST, residues 165-179) (SEQ ID NO: 2 ) was synthesized on an Applied Biosystems model 430A automated peptide synthesizer and purified by HPLC. Amino acid analysis confirmed the authenticity of this peptide, termed ICP4tide. ICP4tide (100 μM), or Kemptide (LRRASLG, Sigma Inc.), a commercially available substrate for protein kinase A ([…]), was then incubated at 30° C. in a solution containing 24 mM MES (pH 7.0), […], 5.6 nM [^32 P]ATP (300-600 Ci/mmol). Each reaction was subsequently initiated by adding 80 U of protein kinase A type I catalytic subunit purified from bovine heart (Sigma Chem. Co., 1000U/0.016 mg protein) to a final volume of 52.5 μl. Following incubation for 4 minutes, 20 μl of the reaction was spotted onto P81 phosphocellulose strips, and phosphopeptides were quantitated after washing three times in […] of 75 mM phosphoric acid as previously described (Roskoski, R. Jr., Methods in Enzymology, 99:3-6 (1983)). For kinetic studies, the concentration of ICP4tide was varied as indicated. The ICP4tide was also phosphorylated in a manner similar to those described below for phosphorylation of purified ICP4 proteins with PKA except that synthetic peptide replaced the purified ICP4 and the ATP concentration was increased to 60 mM. Such phosphorylated peptides were resolved in a 27% SDS-polyacrylamide gel.
(§2) Accordingly, a peptide, named ICP4tide (RRRRHGRWRPSASST, residues 165-179) (SEQ ID NO: 2), corresponding to this potential site was synthesized and incubated in vitro with purified type I catalytic subunits of PKA and [γ-^32 P]ATP. Kemptide (LRRASLG) (SEQ ID NO: 5), a commercially available substrate for PKA, was used as a positive control.
(§3) To determine the Km values of these reactions, we incubated different concentrations of ICP4tide with [Y-^32 P]ATP and a fixed amount of PKA catalytic subunits (80 U each) for 4 min at 30° C. Varying amounts of ICP4tide were incubated with […] of PKA and 60 μM ATP, and the incorporation of ^32 P into ICP4tide was determined. From the Lineweaver-Burk representation of the data, the Km was determined as described (Michael, N., Spector, D., Mavromara-Nazos, P., Kristie, T. M. and Roizman, B., Science, 239:1531-1534 (1988)). […] Thus, the synthetic ICP4tide could be considered to be a good substrate for PKA in vitro.

ICP4 = assay: In vitro phosphorylation of purified ICP4 without added kinase; format: biochemical, HSV-1; conditions: 1 mM
Procedure: In vitro phosphorylation of purified ICP4 proteins with PKA or without added kinase. Approximately 20 ng of the ICP4 protein purified as described previously (Imbalzano, A. N., Shepard, A. A. and DeLuca, N. A., J. Virol., 64:2620-2631 (1990)) was added to a solution containing 10 mM Tris (pH 7.2), 10 mM MgCl2, 50 mM NaCl, 10 mM DTT and 20 μM (0.15 mCi) [γ-^32 P]ATP. The phosphorylation reaction was initiated by adding 60 U of protein kinase A type I catalytic subunit purified from bovine heart (Sigma Chem. Co., 1000 U/0.016 mg protein). Reaction mixtures were incubated at 30° C. for 30 min and stopped by addition of SDS-sample buffer. Equal portions of the reactions were analyzed by SDS-PAGE and transferred onto a nitrocellulose sheet for exposure to Kodak X-AR film and for staining with an ICP4-specific antibody. In some cases, the reaction mixtures were terminated by addition of 0.5 ml lysis buffer, and immunoprecipitation was conducted exactly as described above.
When an equivalent amount of d8-10 ICP4 protein was incubated, no labeled band was observed (Example 1; FIG. 5A, lane 3). The amount of phosphorylation in the absence of added enzyme was approximately one-tenth the level of phosphorylation in the presence of PKA. This phosphorylation in the absence of added enzyme may have resulted from an enzyme tightly bound to ICP4 or from an activity intrinsic to ICP4 itself. […]

[2] = target: T1, protein kinase A type I catalytic subunit (Bos taurus, UniProt P00517); assay: In vitro phosphorylation of a synthetic peptide by PKA; format: biochemical, bovine; conditions: for Ratio**: ratio defined in footnote drawing 1
T1 construct: purchased Sigma Chem. Co; host or cells: bovine heart
Procedure: as §1, §2, §3

viral DNA synthesis = conditions: cited from earlier work
[3] = cited from earlier work

Row | Molecule | Phosphorylation (cpm) ([2]; +PKA) | γ^32 P incorporated (%) ([2]; +PKA) | Ratio** ([2]; +PKA) | Phosphorylation (cpm) ([2]; -PKA) | γ^32 P incorporated (%) ([2]; -PKA) | effect on viral DNA synthesis (viral DNA synthesis) | other results
1 | protein kinase A type I catalytic subunit (Bos taurus) | – | – | – | – | – | – | Km [1]: 9 µM
2 | [Mn+2] [Mn^+2] | – | – | – | – | – | – | effect on phosphorylation of ICP4 in the absence of added kinase (ICP4): inhibited
3 | RRRRHGRWRPSASST [ICP4tide] | 182104 | 6.2 | 26.2 | 6946 | 0.24 | – | Km ([2]; Lineweaver-Burk, PKA catalytic subunits, 4 min at 30° C., 60 μM ATP): 39 µM; phosphorylation by PKA, in words ([2]; compared with Kemptide): strongly phosphorylated
4 | LRRASLG [Kemptide, LRRASLG] | 768687 | 26.1 | 88.5 | 8682 | 0.3 | – | –
5 | Nc1nc2c(ncn2COCCO)c(=O)[nH]1 [acyclovir] | – | – | – | – | – | inhibits viral DNA synthesis | –
6 | Nc1ncnc2c1ncn2[C@@H]1O[C@H](CO)[C@@H](O)[C@@H]1O [vidarabine] | – | – | – | – | – | inhibits viral DNA synthesis | properties in some experimental models [3]: teratogenic, mutagenic and carcinogenic properties
